Read-outs that look alike come from different tables or passages of the source.

One assay has as its system P falciparum strain 3D7. Kind of assay: microbe, parasite or virus in culture. Type of assay: cell-based, Plasmodium falciparum. As to the method: P falciparum strain 3D7 (wild-type, WT) was obtained through MR4 as part of the BEi Resources Repository, NIAID, NIH (www.mr4.org). AP falciparum strain containing increased levels of MEP pathway metabolites, had]
(MRA-1257), and its isogenic compliment, had]+ Pfl-Iadl-GFP (MRA-1258), were generated in strain 3D7, as reported (Guggisberg et al.). Parasites were cultured in a 2% suspension of human erythrocytes and RPMI 1640 (Sigma) medium supplemented with 27 mM sodium bicarbonate, 11 mM glucose, 5 mM HEPES, I mM sodium pyruvate, 0.37 mM hypoxanthine, 0.01 mM thymidine, 10 μg/mL gentamicin, and 0.5% Albumax (Gibco) at 37° C., 5% 02/5% CO2/90% N2 atmosphere.

The target in assay [1] is T1, P. falciparum DXR (Plasmodium falciparum, UniProt Q8IKG4).
T1 construct: His6 (N); made in house; host or cells: Escherichia coli Rosetta2(DE3)
T1 sequence (Q8IKG4 73-488): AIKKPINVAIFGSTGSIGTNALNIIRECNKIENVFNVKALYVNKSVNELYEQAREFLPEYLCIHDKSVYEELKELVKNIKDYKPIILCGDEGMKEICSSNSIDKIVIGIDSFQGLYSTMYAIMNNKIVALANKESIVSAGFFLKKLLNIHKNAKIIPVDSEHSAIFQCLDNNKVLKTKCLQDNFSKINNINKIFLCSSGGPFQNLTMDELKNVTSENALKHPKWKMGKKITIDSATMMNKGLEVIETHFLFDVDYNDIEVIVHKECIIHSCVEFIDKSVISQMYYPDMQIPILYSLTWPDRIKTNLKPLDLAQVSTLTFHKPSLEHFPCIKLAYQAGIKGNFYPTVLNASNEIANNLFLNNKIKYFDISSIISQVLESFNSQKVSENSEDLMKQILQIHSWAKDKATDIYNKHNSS
To be noted: background statement; cited from earlier work.

Assay [2] addresses T1, P. falciparum DXR. Kind of assay: Plasmodium falciparum DXR enzyme IC50. Type of assay: biochemical. How it is done: Recombinant protein was expressed in Escherichia coli Rosetta2(DE3) cells obtained from Novagen (San Diego, CA). E. coli was cultured at 37° C. in Luria-Bertani (LB) media supplemented with 100 μg/mL ampicillin and 34 μg/ml chloramphenicol with constant shaking at 250 rpm. Agar (1.5% wt/vol) was added to prepare solid media.
Cloning. Expression, and Purification of P falciparum DXR
The P falciparum dxr gene was truncated to begin at Lys 75 to remove the apicoplast signaling sequence. A Pf 3D7 trophozoite cDNA library (MRA-297) was acquired from BEi resources and used as the template for amplification of the PIDXR gene. […] 3′ reverse and cloned into a pETl 00/D-TOPO vector to yield pPIDXR, facilitating the expression of an N-terminal His6-tagged protein.
The expression plasmid (pPIDXR) was separately transformed into chemically competent E. coli Rosetta2(DE3) cells for protein expression. To express the His-tagged protein, a 10 mL overnight seed culture was added to IL of LB media and then incubated with shaking at 37° C. and 250 rpm. At an OD600 of 1.8, protein expression was induced with addition of isopropyl b-D-thiogalactopyranoside (IPTG) to 0.5 mM and the culture was further incubated with shaking at 37° C. and 250 rpm for an additional 18 hours. Cells were harvested via centrifugation (4648×g, 20 min, 4° C.) and stored at −80° C. Protein was subsequently isolated and purified from the cells via chemical lysis and affinity chromatography.
Cells were lysed with lysis buffer A (100 mM Tris pH 8.0, 0.032% lysozyme, 3 mL per gram cell pellet), followed by lysis buffer B (0.1 M CaCh, 0.1 M MgCh, 0.1 M NaCl, 0.020% DNase, 0.3 mL per gram cell pellet).
The column was washed with 20 column volumes of Ix equilibrium buffer (50 mM HEPES pH 7.5, 300 mM NaCl), 10 column volumes of Ix wash buffer (50 mM HEPES pH 7.5, 300 mM NaCl, 10 mM imidazole), and 15 column volumes of 2× wash buffer (100 mM HEPES pH 7.5, 600 mM NaCl, 20 mM imidazole). The protein was eluted with 5 column volumes of Ix elution buffer (150 mM imidazole pH 7.0, 300 mM NaCl). Buffer was exchanged with 0.1 M Tris pH 7.5, I mM NaCl, 5 mM DTT during concentration by ultrafiltration. Protein concentration was determined using Advanced Protein Assay Reagent (Cytoskeleton, Denver CO) with y-globulins (Sigma-Aldrich) as the standard. Purified protein was visualized via Coomassie stained SDS-PAGE.

The mark [3] stands for this setting: whole cell, read-out: P. f. IC50.
The mark [4] stands for this setting: recombinant His-tagged enzyme, read-out: P. f. DXR IC50.
Setting [5] is: Plasmodium falciparum, 3D7, read-out: P. f. IC50.

For the compound `CC(=O)N(O)C/C=C/P(=O)(OCOC(=O)c1ccccc1)OCOC(=O)c1ccccc1` [BOM, CH3], the IC50 (as a rule, the point on the concentration scale where inhibition reaches its midpoint) in the assay with P falciparum strain 3D7 (setting [3]) was 11 nM.
Take `O=CN(O)C/C=C/P(=O)(OCOC(=O)c1ccccc1)OCOC(=O)c1ccccc1` [BOM, H]: the IC50 in the assay on P falciparum strain 3D7 (setting [3]) is 42 nM.
In the case of `O=C(OCOP(=O)(/C=C/CN(O)C(=O)c1ccccc1)OCOC(=O)c1ccccc1)c1ccccc1` [BOM, phenyl, [({[(E)-benzoyloxy]methoxy}[(1E)-3-(N-hydroxy-1-phenylformamido)prop-1-en-1-yl]phosphoryl)oxy]methyl benzoate], the IC50 in the assay with P falciparum strain 3D7 (setting [3]) was found to be 297 nM.
With `CC(=O)N(O)CCCP(=O)(O)O` [FR900098], the IC50 on P. falciparum DXR [1] is 24 nM.
With `O=C(c1ccc(Cl)c(Cl)c1)N(O)C/C=C/P(=O)(O)O` [NH4,3,4-dichlorophenyl], the IC50 in the assay on P falciparum strain 3D7 (setting [3]) was determined as 129 nM.
With `O=C(c1cc(Cl)cc(Cl)c1)N(O)C/C=C/P(=O)(O)O` [NH4,3,5-dichlorophenyl], the IC50 in the assay with P falciparum strain 3D7 (setting [3]) was 218 nM.
In the case of `O=C(c1cccc(Cl)c1)N(O)C/C=C/P(=O)(O)O` [NH4,3-chlorophenyl], the IC50 in the assay with P falciparum strain 3D7 (setting [3]) came out at 116 nM.
Take `O=C(c1cccc(F)c1)N(O)C/C=C/P(=O)(O)O` [NH4,3-fluorophenyl]: the IC50 in the assay on P falciparum strain 3D7 (setting [3]) is 352 nM.
In the case of `O=C(c1cccc(C(F)(F)F)c1)N(O)C/C=C/P(=O)(O)O` [NH4,3-trifluoromethylphenyl], at P. falciparum DXR [2] (setting [4]), the IC50 was determined as 49 nM.
Take `O=C(c1ccc(F)cc1)N(O)C/C=C/P(=O)(O)O` [NH4,4-fluorophenyl]: the figures for the IC50 on P. falciparum DXR [2] (setting [4]) and in the assay with P falciparum strain 3D7 (setting [3]) were 38 nM and 173 nM, respectively.
`COc1ccc(C(=O)N(O)C/C=C/P(=O)(O)O)cc1` [NH4,4-methoxyphenyl]: the IC50 in the assay on P falciparum strain 3D7 (setting [3]) came to 632 nM.
On the same count and under the same terms, for `O=C(c1ccncc1)N(O)C/C=C/P(=O)(O)O` [NH4,4-pyridinyl] the value was 5390 nM.
Regarding `O=C(c1ccccc1)N(O)C/C=C/P(=O)(O)O` [NH4, phenyl, Diammonium [(1E)-3-(N-hydroxy-1-phenylformamido)prop-1-en-1-yl]phosphonate], the figures for the IC50 on P. falciparum DXR [2] and in the assay on P falciparum strain 3D7 (setting [5]) were 81 nM and 273 nM, respectively.
On to `O=C(c1cccc2ccccc12)N(O)C/C=C/P(=O)(O)O` [Na/H, 1-naphthyl], for which the results for the IC50 at P. falciparum DXR [2] (setting [4]) and with P falciparum strain 3D7 (setting [3]) were 1800 nM and 5480 nM, respectively.
Regarding `O=C(c1ccc2ccccc2c1)N(O)C/C=C/P(=O)(O)O` [Na/H, 2-naphthyl], the figures for the IC50 on P. falciparum DXR [2] (setting [4]) and in the assay with P falciparum strain 3D7 (setting [3]) were 471 nM and 1620 nM, respectively.
`O=C(c1cc(Cl)cc(Cl)c1)N(O)C/C=C/P(=O)(O)O` [Na/H, 3,5-dichlorophenyl, Sodium hydrogen [(1E)-3-[1-(3,5-dichlorophenyl)—N-hydroxyformamido]prop-1-en-1-yl]phosphonate]: the IC50 on P. falciparum DXR [2] stood at 64 nM; with P falciparum strain 3D7 (setting [5]) it was 170 nM.
On to `O=C(c1cccc(Cl)c1)N(O)C/C=C/P(=O)(O)O` [Na/H, 3-chlorophenyl], for which the concentration for half-maximal inhibition (IC50) at P. falciparum DXR [2] (setting [4]) was found to be 158 nM; in the assay on P falciparum strain 3D7 (setting [3]), 279 nM.
The corresponding values for `O=C(c1cccc(C(F)(F)F)c1)N(O)C/C=C/P(=O)(O)O` [Na/H, 3-trifluoromethylphenyl] are 48 nM and 188 nM.
In the same order, the values of `O=C(c1ccc(-c2ccccc2)cc1)N(O)C/C=C/P(=O)(O)O` [Na/H, 4-biphenyl] are 290 nM and 4380 nM.
In the same order, the values of `O=C(c1ccc(F)cc1)N(O)C/C=C/P(=O)(O)O` [Na/H, 4-fluorophenyl] are 41 nM and 121 nM.
With `Cc1ccc(C(=O)N(O)C/C=C/P(=O)(O)O)cc1` [Na/H, 4-methylphenyl], the IC50 at P. falciparum DXR [2] (setting [4]) stood at 164 nM; in the assay with P falciparum strain 3D7 (setting [3]), 1390 nM.
As to `O=C(c1ccncc1)N(O)C/C=C/P(=O)(O)O` [Na/H, 4-pyridinyl], the IC50 at P. falciparum DXR [2] (setting [4]) was 519 nM; in the assay on P falciparum strain 3D7 (setting [3]) it was 6520 nM.
Regarding `CC(C)(C)c1ccc(C(=O)N(O)C/C=C/P(=O)(O)O)cc1` [Na/H, 4-t-butylphenyl], the IC50 on P. falciparum DXR [2] (setting [4]) was 37900 nM; in the assay with P falciparum strain 3D7 (setting [3]) it was 43700 nM.
The corresponding values for `O=C(c1ccc(C(F)(F)F)cc1)N(O)C/C=C/P(=O)(O)O` [Na/H, 4-trifluoromethylphenyl] are 146 nM and 2500 nM.
Consider `CC(=O)N(O)C/C=C/P(=O)(OCOC(=O)C(C)(C)C)OCOC(=O)C(C)(C)C` [POM, CH3], for which the IC50 with P falciparum strain 3D7 (setting [3]) was found to be 18 nM.
On to `CC(C)(C)C(=O)OCOP(=O)(/C=C/CN(O)C=O)OCOC(=O)C(C)(C)C` [POM, H], for which the IC50 in the assay on P falciparum strain 3D7 (setting [3]) was determined as 13 nM.
For the compound `CC(C)(C)C(=O)OCOP(=O)(C/C=C/N(O)C(=O)c1ccccc1)OCOC(=O)C(C)(C)C` [POM, phenyl, (E)-(((3-(N-hydroxybenzamido)allyl)phosphoryl)bis(oxy))bis(methylene)bis(2,2-dimethylpropanoate)], the IC50 with P falciparum strain 3D7 (setting [3]) worked out at 200 nM.

Values taken from US20240239821A1, “N-ACYL FOSMIDOMYCIN PRODRUG ANALOGS AS NOVEL ANTIINFECTIVE AGENTS” (THE GEORGE WASHINGTON UNIVERSITY, priority 2021, published 2024).
